Among the data in ChEMBL document CHEMBL1128468, “Amino acid side chain descriptors for quantitative structure-activity relationship studies of peptide analogues” (J Med Chem, 1995) are pA2 values, retold here.

This assay addresses T1, Oxytocin receptor (Rattus norvegicus, UniProt P70536).
T1 sequence (P70536 whole entry): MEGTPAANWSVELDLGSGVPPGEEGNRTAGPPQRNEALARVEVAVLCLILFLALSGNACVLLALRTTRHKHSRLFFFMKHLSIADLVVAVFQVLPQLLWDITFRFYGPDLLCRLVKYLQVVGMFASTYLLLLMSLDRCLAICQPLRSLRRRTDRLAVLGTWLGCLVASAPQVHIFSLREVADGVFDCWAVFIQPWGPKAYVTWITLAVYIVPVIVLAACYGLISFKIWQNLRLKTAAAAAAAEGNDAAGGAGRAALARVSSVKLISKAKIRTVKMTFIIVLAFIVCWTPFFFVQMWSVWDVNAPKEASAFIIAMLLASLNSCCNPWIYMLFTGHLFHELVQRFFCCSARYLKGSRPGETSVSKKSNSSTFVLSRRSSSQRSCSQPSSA
Description: Biological activity against Oxytocin receptor in rat.
The pA2 is the negative logarithm of the molar antagonist concentration that doubles the agonist concentration needed for the same response. A lower pA2 goes with lower antagonist potency. The compound `CC[C@H](C)[C@H](NC(=O)[C@@H](Cc1c[nH]c2ccccc12)NC(=O)CC1(S)CCCCC1)C(=O)N[C@H](CCC(N)=O)C(=O)N[C@@H](CC(N)=O)C(=O)N[C@@H](CS)C(=O)N1CCC[C@H]1C(=O)N[C@@H](CCCN=C(N)N)C(=O)NCC(N)=O` showed a pA2 of 5.24.

In the case of `CC[C@H](C)[C@H](NC(=O)[C@@H](Cc1c[nH]c2ccccc12)NC(=O)CC1(S)CCCCC1)C(=O)N[C@H](CC(N)=O)C(=O)N[C@@H](CC(N)=O)C(=O)N[C@@H](CS)C(=O)N1CCC[C@H]1C(=O)N[C@@H](CCCN=C(N)N)C(=O)NCC(N)=O`, the pA2 is recorded as 5.41.

Turning to `CC[C@H](C)[C@@H]1NC(=O)[C@@H](Cc2c[nH]c3ccccc23)NC(=O)CC2(CCCCC2)SSC[C@@H](C(=O)N2CCC[C@H]2C(=O)N[C@@H](CCCN=C(N)N)C(=O)NCC(N)=O)NC(=O)[C@H](CC(N)=O)NC(=O)[C@@H]([C@H](C)O)NC1=O`, the pA2 is given as 4.95.

`CC[C@H](C)[C@@H]1NC(=O)[C@@H](Cc2c[nH]c3ccccc23)NC(=O)CC2(CCCCC2)SSC(C)(C)[C@H](C(=O)N2CCC[C@H]2C(=O)N[C@@H](CCCN=C(N)N)C(=O)NCC(N)=O)NC(=O)[C@H](CC(N)=O)NC(=O)[C@H](CCC(=O)O)NC1=O`: the pA2 is recorded as 7.98.

With `CC[C@H](C)[C@H](NC(=O)[C@@H](Cc1c[nH]c2ccccc12)NC(=O)CC1(S)CCCCC1)C(=O)N[C@H](CCCNC(N)=O)C(=O)N[C@@H](CC(N)=O)C(=O)N[C@@H](CS)C(=O)N1CCC[C@H]1C(=O)N[C@@H](CCCN=C(N)N)C(=O)NCC(N)=O`, the pA2 turned out to be 5.51.
